This passage reports IC50 results from ChEMBL document CHEMBL2029309, “Proposed Bioactive Conformations of Opiorphin, an Endogenous Dual APN/NEP Inhibitor” (ACS Med Chem Lett, 2012).

Peptide text beside a SMILES is read from it.

In experiment [1] the target is T1, Neprilysin (Homo sapiens, UniProt P08473). Description: Inhibition of human neprilysin.
In experiment [2] the target is T2, Aminopeptidase N (Homo sapiens, UniProt P15144). Put plainly: Inhibition of human aminopeptidase N.
Experiment [3] concerns the target T1, Neprilysin. Description: Inhibition of human recombinant neprilysin using Abz-dR-G-L-EDDnp as substrate incubated for 10 mins prior to substrate addition measured for 40 mins by fluorometry.
Experiment [4] deals with T2, Aminopeptidase N. Description: Inhibition of human recombinant aminopeptidase N using Ala-Mca as substrate incubated for 10 mins prior to substrate addition measured for 40 mins by fluorometry.

T1 sequence (P08473 whole entry): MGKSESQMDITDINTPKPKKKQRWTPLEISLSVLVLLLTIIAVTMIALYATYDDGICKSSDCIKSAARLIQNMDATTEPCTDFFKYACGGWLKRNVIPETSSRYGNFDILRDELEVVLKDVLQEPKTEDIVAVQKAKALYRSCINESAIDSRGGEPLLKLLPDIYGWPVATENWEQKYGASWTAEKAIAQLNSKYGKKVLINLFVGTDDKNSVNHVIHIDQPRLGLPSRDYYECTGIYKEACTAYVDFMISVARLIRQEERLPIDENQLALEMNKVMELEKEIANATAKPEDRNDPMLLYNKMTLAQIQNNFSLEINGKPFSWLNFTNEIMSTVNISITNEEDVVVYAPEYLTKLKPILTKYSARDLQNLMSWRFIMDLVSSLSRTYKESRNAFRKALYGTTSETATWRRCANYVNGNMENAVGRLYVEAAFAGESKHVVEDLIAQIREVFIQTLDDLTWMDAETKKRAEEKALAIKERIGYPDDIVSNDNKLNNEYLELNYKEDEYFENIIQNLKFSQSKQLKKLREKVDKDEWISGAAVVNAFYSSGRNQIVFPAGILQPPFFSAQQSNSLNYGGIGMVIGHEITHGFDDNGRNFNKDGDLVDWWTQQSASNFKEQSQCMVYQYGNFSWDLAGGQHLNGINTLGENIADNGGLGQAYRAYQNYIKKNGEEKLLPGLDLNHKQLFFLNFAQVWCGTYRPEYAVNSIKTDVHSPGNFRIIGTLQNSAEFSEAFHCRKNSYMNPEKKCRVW
T2 sequence (P15144 whole entry): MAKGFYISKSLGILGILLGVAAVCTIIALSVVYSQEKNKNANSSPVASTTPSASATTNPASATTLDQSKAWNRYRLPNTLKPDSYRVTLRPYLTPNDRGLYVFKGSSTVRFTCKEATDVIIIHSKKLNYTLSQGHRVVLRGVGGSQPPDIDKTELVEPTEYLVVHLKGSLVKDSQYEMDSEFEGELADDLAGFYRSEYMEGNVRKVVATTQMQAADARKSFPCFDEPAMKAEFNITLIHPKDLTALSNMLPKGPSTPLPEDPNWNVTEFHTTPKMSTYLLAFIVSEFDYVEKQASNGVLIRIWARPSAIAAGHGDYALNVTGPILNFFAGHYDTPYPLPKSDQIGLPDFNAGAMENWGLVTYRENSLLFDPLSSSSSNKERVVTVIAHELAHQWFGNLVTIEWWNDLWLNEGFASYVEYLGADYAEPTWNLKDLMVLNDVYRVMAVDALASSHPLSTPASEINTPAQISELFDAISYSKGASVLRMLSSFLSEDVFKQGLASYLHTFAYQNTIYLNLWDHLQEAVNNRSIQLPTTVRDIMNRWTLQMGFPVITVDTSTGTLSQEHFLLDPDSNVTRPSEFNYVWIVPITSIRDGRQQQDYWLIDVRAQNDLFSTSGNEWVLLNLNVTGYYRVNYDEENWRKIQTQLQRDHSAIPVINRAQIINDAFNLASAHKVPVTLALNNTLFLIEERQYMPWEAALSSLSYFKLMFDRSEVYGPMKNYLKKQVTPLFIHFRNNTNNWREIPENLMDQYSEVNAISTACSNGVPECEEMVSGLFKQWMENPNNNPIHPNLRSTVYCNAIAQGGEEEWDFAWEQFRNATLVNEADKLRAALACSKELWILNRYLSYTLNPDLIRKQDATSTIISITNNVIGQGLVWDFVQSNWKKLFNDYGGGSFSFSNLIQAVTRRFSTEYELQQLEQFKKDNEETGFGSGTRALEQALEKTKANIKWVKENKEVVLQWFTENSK

`N=C(N)NCCC[C@H](NC(=O)[C@@H](N)CCC(N)=O)C(=O)N[C@@H](Cc1ccccc1)C(=O)N[C@@H](CO)C(=O)O` [OPIORPHIN (1-4)] (H-QRFS-OH) returned a concentration for half-maximal inhibition (IC50) on Neprilysin [1] above 100 µM.
On to `N=C(N)NCCC[C@H](NC(=O)[C@H](CO)NC(=O)[C@H](Cc1ccccc1)NC(=O)[C@@H](N)CCCNC(=N)N)C(=O)O` [OPIORPHIN (2-5)] (H-RFSR-OH), for which the half-inhibitory concentration (IC50) at Neprilysin [1] was 180 µM.
In the case of `NC(N)=NCCC[C@H](NC(=O)[C@H](CO)NC(=O)[C@@H](N)Cc1ccccc1)C(=O)O` [OPIORPHIN (3-5)] (H-Phe-Ser-Arg-OH), the half-maximal inhibitory concentration (IC50) at Aminopeptidase N [2] came out at 120 µM; against Neprilysin [1], 7 µM.
As for H-FQRFSR-OH, the IC50 at Neprilysin [3] worked out at 51 µM; on Aminopeptidase N [4], 122 µM.
For H-NRFSR-OH the same measures were 130 µM and above 100 µM.
On the same counts, the results for H-QRFTR-OH are above 100 µM and above 100 µM.

By IC50 is commonly meant the concentration needed to halve the response being measured.
